Data on six molecules can be found in US6743800B1, “Naphthyridine derivatives, processes for their preparation, their use and pharmaceutical compositions comprising them” (Aventis Pharma Deutschland GmbH, priority 1999, dated 2004).

The target of assay [1] is T1, human vitronectin receptor αvβ3 (Homo sapiens, UniProt P05106+P06756).
T1 construct: Human vitronectin receptor is obtained from the human placenta according to the method of Pytela et al; from tissue; host or cells: human placenta (alternative: 293 cells co-transfected with αv and β3 DNA)
T1 sequence (P06756 31-889 limits assumed): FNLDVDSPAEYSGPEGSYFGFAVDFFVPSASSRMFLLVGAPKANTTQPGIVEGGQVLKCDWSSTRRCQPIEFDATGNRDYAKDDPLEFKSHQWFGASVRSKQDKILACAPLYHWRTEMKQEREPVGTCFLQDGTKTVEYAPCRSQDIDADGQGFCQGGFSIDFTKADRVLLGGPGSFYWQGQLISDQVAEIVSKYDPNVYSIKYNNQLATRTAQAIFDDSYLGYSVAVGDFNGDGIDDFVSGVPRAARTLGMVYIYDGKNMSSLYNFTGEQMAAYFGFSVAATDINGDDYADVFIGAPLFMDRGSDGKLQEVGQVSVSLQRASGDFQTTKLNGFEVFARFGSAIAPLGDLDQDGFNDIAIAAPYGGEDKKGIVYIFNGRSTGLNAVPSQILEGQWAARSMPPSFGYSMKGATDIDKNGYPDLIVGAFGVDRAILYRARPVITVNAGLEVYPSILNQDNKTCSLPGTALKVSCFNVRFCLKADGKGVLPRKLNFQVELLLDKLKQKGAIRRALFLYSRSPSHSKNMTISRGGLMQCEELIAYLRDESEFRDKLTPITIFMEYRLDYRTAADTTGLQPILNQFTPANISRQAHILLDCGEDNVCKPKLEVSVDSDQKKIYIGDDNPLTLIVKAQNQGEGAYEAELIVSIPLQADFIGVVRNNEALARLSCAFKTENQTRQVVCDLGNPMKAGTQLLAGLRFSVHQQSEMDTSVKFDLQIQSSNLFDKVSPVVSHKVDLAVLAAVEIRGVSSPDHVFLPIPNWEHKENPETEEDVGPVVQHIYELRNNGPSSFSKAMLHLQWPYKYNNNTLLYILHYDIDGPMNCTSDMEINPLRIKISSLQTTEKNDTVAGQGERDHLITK
T1 sequence (P06756 891-1048 partner limits assumed): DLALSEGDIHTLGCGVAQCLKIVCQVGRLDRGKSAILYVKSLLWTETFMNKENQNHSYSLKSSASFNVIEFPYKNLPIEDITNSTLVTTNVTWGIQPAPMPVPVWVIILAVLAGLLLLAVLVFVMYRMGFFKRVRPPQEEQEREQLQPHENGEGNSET
T1 sequence (P05106 27-788): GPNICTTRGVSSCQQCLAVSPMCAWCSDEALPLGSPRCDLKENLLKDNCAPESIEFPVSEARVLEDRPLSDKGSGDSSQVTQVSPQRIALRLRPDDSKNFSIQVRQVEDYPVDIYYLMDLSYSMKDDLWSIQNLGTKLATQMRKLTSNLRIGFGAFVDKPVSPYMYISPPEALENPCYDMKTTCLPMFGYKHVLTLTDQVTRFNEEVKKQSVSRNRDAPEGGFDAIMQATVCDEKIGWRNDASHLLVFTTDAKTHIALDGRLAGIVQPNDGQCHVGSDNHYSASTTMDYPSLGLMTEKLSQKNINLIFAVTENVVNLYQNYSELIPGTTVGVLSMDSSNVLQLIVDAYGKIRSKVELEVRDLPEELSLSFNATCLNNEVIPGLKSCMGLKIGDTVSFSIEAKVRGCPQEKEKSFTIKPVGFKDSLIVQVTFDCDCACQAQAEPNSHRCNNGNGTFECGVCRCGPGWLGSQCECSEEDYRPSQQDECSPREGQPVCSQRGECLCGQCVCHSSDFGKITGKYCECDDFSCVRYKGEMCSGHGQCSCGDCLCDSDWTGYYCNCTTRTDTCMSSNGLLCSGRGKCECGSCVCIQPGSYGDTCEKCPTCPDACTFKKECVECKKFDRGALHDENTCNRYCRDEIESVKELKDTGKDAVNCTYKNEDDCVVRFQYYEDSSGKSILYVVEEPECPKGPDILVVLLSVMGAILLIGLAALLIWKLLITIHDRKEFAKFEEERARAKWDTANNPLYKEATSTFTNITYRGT
Put plainly: Kistrin binding assay (αvβ3 ELISA test, K/VnR). The note with it: inhibition of binding of kistrin to human vitronectin receptor αvβ3, ELISA. The source says:
The inhibition of the binding of kistrin to human vitronectin receptor (VnR) described below is a test method by which the antagonistic action of the compounds of the invention on the vitronectin receptor αvβ3 can be determined (αvβ3 ELISA Test; the test method is abbreviated as “K/VnR” in the listing of the test results).
Kistrin is purified according to the methods of Dennis et al., as described in Proc. Natl. Acad. Sci. USA 87 (1989) 2471 and Proteins: Structure, Function and Genetics 15 (1993) 312.
Purification of Human Vitronectin Receptor (αvβ3)
Human vitronectin receptor is obtained from the human placenta according to the method of Pytela et al., Methods Enzymol. 144 (1987) 475. Human vitronectin receptor αvβ3 can also be obtained from some cell lines (for example from 293 cells, a human embryonic kidney cell line) which are co-transfected with DNA sequences for both subunits αv and β3 of the vitronectin receptor. The subunits are extracted with octyl glycoside and then chromatographed through concanavalin A, heparin-Sepharose and S-300.
Murine monoclonal antibodies which are specific for the β3 subunits of the vitronectin receptor, are prepared according to the method of Newman et al., Blood, 1985, 227, or by a similar process. The rabbit Fab 2 anti-mouse Fc conjugate to horseradish peroxidase (anti-mouse Fc HRP) was obtained from Pel Freeze (Catalog No. 715 305-1).
The ability of substances to inhibit the binding of kistrin to the vitronectin receptor can be determined using an ELISA test. For this purpose, Nunc 96-well microtiter plates are coated with a solution of kistrin (0.002 mg/ml) according to the method of Dennis et al., as described in Proteins: Structure, Function and Genetics 15 (1993) 312. The plates are then washed twice with PBS/0.05% Tween-20 and blocked by incubating (60 min) with bovine serum albumin (BSA, 0.5%, RIA grade or better) in buffer solution (Tris-HCl (50 mM), NaCl (100 mM), MgCl2 (1 mM), CaCl2 (1 mM), MnCl2 (1 mM), pH 7). Solutions of known inhibitors and of the test substances are prepared in concentrations from 2×10^−12 to 2×10^−6 mol/l in assay buffer (BSA (0.5%, RIA grade or better); Tris-HCl (50 mM); NaCl (100 mM), MgCl2 (1 mM), CaCl2 (1 mM), MnCl2 (1 mM), pH 7). The blocked plates are emptied, and in each case 0.025 ml of this solution which contains a defined concentration (2×10^−12 to 2×10^−6 mol/l) either of a known inhibitor or of a test substance, are added to each well. 0.025 ml of a solution of the vitronectin receptor in assay buffer (0.03 mg/ml) is pipetted into each well of the plate and the plate is incubated at room temperature for 60-180 min on a shaker. In the meantime, a solution (6 ml/plate) of a murine monoclonal antibody specific for the β3 subunit of the vitronectin receptor is prepared in assay buffer (0.0015 mg/ml). A second rabbit antibody (0.001 ml of stock solution/6 ml of the murine monoclonal anti-β3 antibody solution) which is an anti-mouse Fc HRP antibody conjugate is added to this solution, and this mixture of murine anti-β3 antibody and rabbit anti-mouse Fc HRP antibody conjugate is incubated during the time of the receptor-inhibitor incubation. The test plates are washed four times with PBS solution which contains 0.05% Tween-20, and in each case 0.05 ml/well of the antibody mixture is pipetted into each well of the plate and incubated for 60-180 min. The plate is washed four times with PBS/0.05% Tween-20 and then developed with 0.05 ml/well of a PBS solution which contains 0.67 mg/ml of o-phenylenediamine and 0.012% of H2O2 . Alternatively to this, o-phenylenediamine can be employed in a buffer (pH 5) which contains Na3PO4 and citric acid. The color development is stopped using 1 N H2SO4 (0.05 ml/well). The absorption for each well is measured at 492-405 nm and the data are evaluated by standard methods.
For orientation: ELISA stands for enzyme-linked immunosorbent assay.

Assay [2] has as its target 293 cells cotransfected with αv and β3 subunits of the vitronectin receptor αvβ3 (Homo sapiens, UniProt P05106+P06756). Put plainly: Vitronectin/293 cell test (inhibition of binding of 293 cells to human vitronectin). It counts as cell-based. To be noted: inhibition of binding of αvβ3-expressing 293 cells to human vitronectin; read-out: Vn/293 cell test IC50. As for the experimental part: 2) Vitronectin/293 Cell Test
In this test the inhibition of binding of 293 cells to human vitronectin (Vn) by the compounds of the invention is determined (the test method is abbreviated as Vn/293 cell test in the listing of the test results).
Purification of Human Vitronectin
Human vitronectin was isolated from human plasma and purified by affinity chromatography according to the method of Yatohgo et al., Cell Structure and Function 23 (1988) 281.
293 cells, a human embryonic kidney cell line, which were cotransfected with DNA sequences for the αv and β3 subunits of the vitronectin receptor αvβ3, were selected for a high rate of expression (>500,000 αvβ3 receptors/cell) according to the FACS method. The selected cells were cultured and sorted again by means of FACS in order to obtain a stable cell line (15 D) with expression rates >1,000,000 copies of αvβ3 per cell.
A Linbro 96-well tissue culture plate with a flat bottom was coated overnight at 4° C. with human vitronectin (0.01 mg/ml, 0.05 ml/well) in phosphate-buffered saline solution (PBS) and then blocked with 0.5% strength BSA (bovine serum albumin). Solutions of the test substances from 10^−10 mol/l to 2×10^−3 mol/l in glucose-containing DMEM medium were prepared and 0.05 ml/well of the solution were added to the plate in each case. The cells which expressed high levels of αvβ3 (for example 15 D) were suspended in glucose-containing DMEM medium and the suspension was adjusted to a content of 25,000 cells/0.05 ml of medium. 0.05 ml of this cell suspension was added to each well and the plate was incubated at 37° C. for 90 min. The plate was washed 3 times with warm PBS in order to remove unbound cells. The bound cells were lyzed in citrate buffer (25 mM, pH 5.0) which contained 0.25% Triton X-100. The hexoseamidase substrate p-nitrophenyl-N-acetyl-β-D-glucosaminide was then added and the plate was incubated at 37° C. for 90 min. The reaction was stopped with a glycine (50 mM)/EDTA (5 mM) buffer (pH 10.4) and the absorption of each well was measured at 405 to 650 nm. The data were analyzed according to standard methods.

Assay [3] concerns bone resorption by osteoclasts. As to the kind of experiment: Pit Assay (osteoclast resorption test). It counts as cell-based. The note with it: inhibition of bone resorption. An excerpt: The inhibition of bone resorption by the compounds of the invention can be determined, for example, with the aid of an osteoclast resorption test (“Pit Assay”), for example analogously to WO-A-95/32710 which is incorporated herein by reference.

Sequence of 293 cells cotransfected with αv and β3 subunits of the vitronectin receptor αvβ3 (P05106 whole entry): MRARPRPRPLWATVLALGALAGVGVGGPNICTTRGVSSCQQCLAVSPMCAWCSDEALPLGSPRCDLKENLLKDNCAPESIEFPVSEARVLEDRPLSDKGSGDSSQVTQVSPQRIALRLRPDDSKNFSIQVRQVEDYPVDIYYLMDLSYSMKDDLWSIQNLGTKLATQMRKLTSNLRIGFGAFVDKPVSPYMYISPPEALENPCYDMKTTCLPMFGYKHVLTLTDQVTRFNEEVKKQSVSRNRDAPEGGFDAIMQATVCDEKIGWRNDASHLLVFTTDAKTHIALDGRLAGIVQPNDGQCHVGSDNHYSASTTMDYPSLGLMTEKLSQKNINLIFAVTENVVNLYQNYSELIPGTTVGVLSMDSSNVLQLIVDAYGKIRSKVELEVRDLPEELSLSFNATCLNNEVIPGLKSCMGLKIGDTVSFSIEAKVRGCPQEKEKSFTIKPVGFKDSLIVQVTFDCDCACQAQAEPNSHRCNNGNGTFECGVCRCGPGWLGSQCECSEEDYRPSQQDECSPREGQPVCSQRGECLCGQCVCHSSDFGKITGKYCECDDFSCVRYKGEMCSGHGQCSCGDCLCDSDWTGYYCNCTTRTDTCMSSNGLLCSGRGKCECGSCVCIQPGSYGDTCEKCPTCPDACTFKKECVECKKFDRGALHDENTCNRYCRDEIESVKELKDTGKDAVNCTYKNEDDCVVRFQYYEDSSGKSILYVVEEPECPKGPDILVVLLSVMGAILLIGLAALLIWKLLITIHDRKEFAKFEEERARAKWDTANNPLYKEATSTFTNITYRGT
Sequence of 293 cells cotransfected with αv and β3 subunits of the vitronectin receptor αvβ3 (P06756 whole entry): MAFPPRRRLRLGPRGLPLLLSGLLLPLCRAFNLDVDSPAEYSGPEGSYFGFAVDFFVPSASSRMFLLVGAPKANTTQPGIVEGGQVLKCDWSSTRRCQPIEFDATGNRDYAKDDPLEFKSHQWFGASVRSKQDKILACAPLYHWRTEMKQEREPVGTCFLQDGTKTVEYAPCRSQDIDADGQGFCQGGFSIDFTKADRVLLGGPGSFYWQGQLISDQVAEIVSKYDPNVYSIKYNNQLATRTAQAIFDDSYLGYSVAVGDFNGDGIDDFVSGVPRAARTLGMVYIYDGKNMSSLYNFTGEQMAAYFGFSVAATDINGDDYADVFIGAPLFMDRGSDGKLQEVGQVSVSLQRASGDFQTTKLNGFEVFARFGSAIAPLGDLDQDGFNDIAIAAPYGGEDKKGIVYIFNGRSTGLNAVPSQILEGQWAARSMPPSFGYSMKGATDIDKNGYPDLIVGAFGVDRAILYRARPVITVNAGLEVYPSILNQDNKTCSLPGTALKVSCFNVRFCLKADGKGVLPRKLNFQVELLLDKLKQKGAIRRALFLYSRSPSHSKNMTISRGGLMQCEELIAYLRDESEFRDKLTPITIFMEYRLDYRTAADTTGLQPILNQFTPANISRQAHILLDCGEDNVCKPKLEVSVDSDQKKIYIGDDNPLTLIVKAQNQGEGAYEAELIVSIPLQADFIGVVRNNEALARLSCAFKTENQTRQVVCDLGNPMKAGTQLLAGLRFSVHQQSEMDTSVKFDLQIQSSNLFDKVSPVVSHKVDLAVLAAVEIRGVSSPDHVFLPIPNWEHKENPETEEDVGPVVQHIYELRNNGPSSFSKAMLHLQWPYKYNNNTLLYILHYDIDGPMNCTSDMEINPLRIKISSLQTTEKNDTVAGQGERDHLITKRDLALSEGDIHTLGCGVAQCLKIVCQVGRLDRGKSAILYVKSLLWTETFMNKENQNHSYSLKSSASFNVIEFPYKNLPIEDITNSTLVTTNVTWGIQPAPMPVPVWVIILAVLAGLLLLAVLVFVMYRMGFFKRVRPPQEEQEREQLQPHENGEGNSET

Turning to `CCCCS(=O)(=O)N[C@@H](Cn1cnc2c(N3CCC(c4ccc5c(n4)NCCC5)CC3)ncnc21)C(=O)O` [Example 6, (2S)-2-(Butane-1-sulfonylamino)-3-(6-(4-(5,6,7,8-tetrahydro-[1,8]naphthyridin-2-yl)-piperidin-1-yl)-purin-9-yl)-propionic acid], the figures for the IC50 in assay [1] and in assay [2] were 18 nM and 115 nM, respectively.
Turning to `O=C(O)[C@H](Cn1cnc2c(N3CCC(c4ccc5c(n4)NCCC5)CC3)ncnc21)NS(=O)(=O)c1cccc2ccccc12` [Example 4, (2S)-2-(Naphthalene-1-sulfonylamino)-3-(6-(4-(5,6,7,8-tetrahydro-[1,8]naphthyridin-2-yl)-piperidin-1-yl)-purin-9-yl)-propionic acid], the IC50 in assay [1] was 6.4 nM; in assay [2] it was 24 nM; in assay [3], < 10 nM.
Regarding `O=C(N[C@@H](Cn1cnc2c(N3CCC(c4ccc5c(n4)NCCC5)CC3)ncnc21)C(=O)O)OCc1ccccc1` [Example 1, (2S)-2-Benzyloxycarbonylamino-3-(6-(4-(5,6,7,8-tetrahydro-[1,8]naphthyridin-2-yl)-piperidin-1-yl)-purin-9-yl)-propionic acid], the IC50 in assay [1] is 10 nM; in assay [2], 78 nM.
In the case of `O=C(O)[C@H](Cn1cnc2c(N3CCC(c4ccc5c(n4)NCCC5)CC3)ncnc21)NS(=O)(=O)c1ccc(Cl)cc1` [Example 3, (2S)-2-(4-Chlorobenzenesulfonylamino)-3-(6-(4-(5,6,7,8-tetrahydro-[1,8]naphthyridin-2-yl)-piperidin-1-yl)-purin-9-yl)-propionic acid], the IC50 in assay [1] is 5.1 nM; in assay [2] it was 15 nM; in assay [3], 0.3 nM.
For `O=C(O)[C@H](Cn1cnc2c(N3CCC(c4ccc5c(n4)NCCC5)CC3)ncnc21)NS(=O)(=O)c1ccccc1` [Example 2, (2S)-2-Benzenesulfonylamino-3-(6-(4-(5,6,7,8-tetrahydro-[1,8]naphthyridin-2-yl)-piperidin-1-yl)-purin-9-yl)-propionic acid], the IC50 in assay [1] is 4.8 nM; in assay [2], 23 nM.
For the molecule `O=C(O)[C@H](Cn1cnc2c(N3CCC(c4ccc5c(n4)NCCC5)CC3)ncnc21)NS(=O)(=O)c1ccc(C(F)(F)F)cc1` [Example 5, (2S)-3-(6-(4-(5,6,7,8-Tetrahydro-[1,8]naphthyridin-2-yl)-piperidin-1-yl)-purin-9-yl)-2-(4-trifluoromethylbenzenesulfonylamino)-propionic acid], the IC50 in assay [1] turned out to be 5 nM; in assay [2], 22 nM.
